Test results from ChEMBL document CHEMBL4346714, “Multitarget PPARγ agonists as innovative modulators of the metabolic syndrome” (Eur J Med Chem, 2019).

Assays:
[1] = biological target: T1, Peroxisome proliferator-activated receptor gamma (Homo sapiens) (UniProt P37231); experiment: Transactivation of PPARgamma (unknown origin) expressed in HEK293 cells at 10 uM after 24 to 48 hrs by luciferase reporter gene assay relative to control; type: cell-based
T1 sequence (whole entry): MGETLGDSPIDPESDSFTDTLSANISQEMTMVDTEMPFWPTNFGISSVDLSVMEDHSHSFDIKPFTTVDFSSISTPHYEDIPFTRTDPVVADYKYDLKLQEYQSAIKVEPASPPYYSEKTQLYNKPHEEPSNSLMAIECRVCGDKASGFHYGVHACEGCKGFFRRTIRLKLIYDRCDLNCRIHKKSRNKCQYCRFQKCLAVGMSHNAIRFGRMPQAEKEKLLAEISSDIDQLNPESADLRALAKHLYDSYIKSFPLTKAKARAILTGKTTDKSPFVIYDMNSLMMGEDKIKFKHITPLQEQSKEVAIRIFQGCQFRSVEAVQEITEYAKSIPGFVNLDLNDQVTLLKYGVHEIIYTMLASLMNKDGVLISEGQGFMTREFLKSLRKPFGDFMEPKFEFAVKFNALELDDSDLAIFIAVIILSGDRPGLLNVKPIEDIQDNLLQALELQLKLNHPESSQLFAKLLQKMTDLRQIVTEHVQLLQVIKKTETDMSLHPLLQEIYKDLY

[2] = biological target: T2, Hexokinase-4 (Homo sapiens) (UniProt P35557); experiment: Activation of recombinant human glucokinase assessed as conversion of D-glucose to D-glucose-6-phosphate dehydrate at 10 uM by G6PDH/NADP coupled assay relative to control
T2 sequence (whole entry): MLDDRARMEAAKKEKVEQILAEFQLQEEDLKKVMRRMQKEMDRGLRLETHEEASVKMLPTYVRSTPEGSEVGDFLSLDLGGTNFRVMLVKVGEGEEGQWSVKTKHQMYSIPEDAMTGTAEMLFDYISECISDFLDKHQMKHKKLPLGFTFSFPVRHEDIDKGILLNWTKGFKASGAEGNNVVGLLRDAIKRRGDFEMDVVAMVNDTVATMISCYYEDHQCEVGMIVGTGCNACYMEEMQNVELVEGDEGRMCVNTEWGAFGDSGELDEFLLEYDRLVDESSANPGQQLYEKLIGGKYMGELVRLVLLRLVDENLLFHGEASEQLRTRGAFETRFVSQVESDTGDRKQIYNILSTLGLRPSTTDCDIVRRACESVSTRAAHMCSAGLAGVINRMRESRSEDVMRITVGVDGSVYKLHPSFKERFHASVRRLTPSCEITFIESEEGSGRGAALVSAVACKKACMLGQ

[3] = biological target: T1, Peroxisome proliferator-activated receptor gamma (Homo sapiens); experiment: Agonist activity at PPARgamma (unknown origin) at 10 uM by luciferase reporter gene assay relative to control
[4] = biological target: T2, Hexokinase-4 (Homo sapiens); experiment: Activation of glucokinase (unknown origin) at 10 uM relative to control

Compound	Efficacy [1] [%]	fold change (FC) [2]	Efficacy [3] [%]	fold change (FC) [4]
CCCOc1ccc(OCc2cccc(F)c2)cc1C(=O)Nc1ccc(C(=O)O)cn1	52.7	1.7	–	–
O=C(Cc1ccc(/C=C2\SC(=O)NC2=O)cc1[N+](=O)[O-])Nc1ccccn1	–	–	47.1	2.9
CC(C)OC(=O)c1ccc(NC(=O)Cc2ccc(/C=C3\SC(=O)NC3=O)cc2[N+](=O)[O-])nc1	–	–	48	2.9
CCOC(=O)c1ccc(NC(=O)Cc2ccc(/C=C3\SC(=O)NC3=O)cc2[N+](=O)[O-])nc1	–	–	47.4	2.7
